Consider 23 compounds from patent publication US10683278B2 (JINAN UNIVERSITY, priority 2015, dated 2020).

Where only a bound is given, the exact number is not on record here.

The target in this test is T1, AXL kinase (Homo sapiens, UniProt P30530).
T1 construct: purchased Invitrogen PV4803
T1 sequence (P30530 26-894): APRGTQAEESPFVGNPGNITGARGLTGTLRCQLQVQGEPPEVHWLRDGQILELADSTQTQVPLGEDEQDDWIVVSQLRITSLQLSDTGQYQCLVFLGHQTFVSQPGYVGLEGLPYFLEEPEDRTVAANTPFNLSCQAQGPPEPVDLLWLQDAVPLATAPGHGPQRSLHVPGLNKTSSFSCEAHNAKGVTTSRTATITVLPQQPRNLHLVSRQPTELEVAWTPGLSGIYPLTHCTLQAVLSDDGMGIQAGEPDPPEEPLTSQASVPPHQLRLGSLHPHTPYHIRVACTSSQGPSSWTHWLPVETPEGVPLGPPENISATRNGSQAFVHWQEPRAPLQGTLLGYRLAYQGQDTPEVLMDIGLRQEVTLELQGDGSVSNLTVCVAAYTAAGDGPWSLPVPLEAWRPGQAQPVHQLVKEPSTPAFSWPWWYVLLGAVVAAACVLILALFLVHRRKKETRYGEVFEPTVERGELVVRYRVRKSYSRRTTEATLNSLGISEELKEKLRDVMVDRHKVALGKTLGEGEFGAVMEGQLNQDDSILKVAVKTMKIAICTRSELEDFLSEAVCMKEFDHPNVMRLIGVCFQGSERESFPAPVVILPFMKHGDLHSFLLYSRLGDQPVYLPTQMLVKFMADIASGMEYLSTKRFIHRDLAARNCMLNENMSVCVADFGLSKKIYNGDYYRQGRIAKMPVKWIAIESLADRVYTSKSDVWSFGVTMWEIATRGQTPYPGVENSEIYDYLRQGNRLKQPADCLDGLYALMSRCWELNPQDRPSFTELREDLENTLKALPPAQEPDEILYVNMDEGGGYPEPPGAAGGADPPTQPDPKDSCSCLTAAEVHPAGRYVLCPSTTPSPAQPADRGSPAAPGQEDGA
The test is described as follows: IC50 test on AXL kinase (Z′-LYTE FRET kinase activity detection). The class given is biochemical. The settings on record: Z′-LYTE FRET peptide assay, 1 h reaction. An excerpt: Kinase activity detection: The activity of compounds on kinases was detected by a secondary reaction which used the Z′-LYTE™ technique (a detection using fluorescence, enzyme coupling, and based on differences in susceptibility of phosphorylated and non-phosphorylated polypeptides to proteolytic cleavage), followed the fluorescence resonance energy transfer (FRET) principle, and used Z′-LYTE™ FRET peptide substrates (Invitrogen, Z′-LYTE™ KINASE ASSAY KIT—TYR 2 PEPTIDE, PV3191). AXL kinase (invitrogen, PV4803) was diluted stepwise, FRET peptide was then added, followed by ATP, then by compounds at different concentrations, reacted for 1 h, site-specific proteases were then added to recognize and cleave non-phosphorylated FRET peptides, reacted for 1 h, and […] at 445 nm and 520 nm were detected using excitation wavelength of 400 nm.
As to `Cc1c(C(=O)Nc2ccc(Oc3ncnc4[nH]cc(-c5ccccc5)c34)c(F)c2)c(=O)c2cc(C3CC3)ccc2n1C` [TL50148, 6-cyclopropyl-N-(3-fluoro-4-((5-phenyl-7H-pyrrolo[2,3-d]pyrimidin-4-yl)oxy)phenyl)-1,2-dimethyl-4-oxo-1,4-dihydroquinoline-3-carboxamide], the half-inhibitory concentration (IC50) (commonly the concentration needed to halve the response being measured) was 227 nM.
Next, `Cc1c(C(=O)Nc2ccc(Oc3ncnc4[nH]cc(-c5ccccc5)c34)c(F)c2)c(=O)c2cc(C3=CCCC3)ccc2n1C` [TL50160, 6-cyclopentenyl-N-(3-fluoro-4-((5-phenyl-7H-pyrrolo[2,3-d]pyrimidin-4-yl)oxy)phenyl)-1,2-dimethyl-4-oxo-1,4-dihydroquinoline-3-carboxamide]: 4530 nM.
`Cc1c(C(=O)Nc2ccc(Oc3ncnc4[nH]cc(-c5ccccc5)c34)c(F)c2)c(=O)c2cc(C3CCCC3)ccc2n1C` [TL50161, 6-cyclopentyl-N-(3-fluoro-4-((5-phenyl-7H-pyrrolo[2,3-d]pyrimidin-4-yl)oxy)phenyl)-1,2-dimethyl-4-oxo-1,4-dihydroquinoline-3-carboxamide] displayed a half-maximal inhibitory concentration (IC50) of 195 nM.
As for `Cc1c(C(=O)Nc2ccc(Oc3ncnc4[nH]cc(-c5ccccc5)c34)c(F)c2)c(=O)c2cc(-c3ccccc3)ccc2n1C` [TL50163, N-(3-fluoro-4-(5-phenyl-7H-pyrrolo[2,3-d]pyrimidin-4-yloxy)phenyl)-1,2-dimethyl-4-oxo-6-phenyl-1,4-dihydroquinoline-3-carboxamide], the half-maximal inhibitory concentration (IC50) is greater than 10000 nM.
Next, `C=C(C)c1ccc2c(c1)c(=O)c(C(=O)Nc1ccc(Oc3ncnc4[nH]cc(-c5ccccc5)c34)c(F)c1)c(C)n2C` [TL50167, N-(3-fluoro-4-(5-phenyl-7H-pyrrolo[2,3-d]pyrimidin-4-yloxy)phenyl)-1,2-dimethyl-4-oxo-6-(prop-1-en-2-yl)-1,4-dihydroquinoline-3-carboxamide]: 324 nM; `Cc1c(C(=O)Nc2ccc(Oc3ncnc4[nH]cc(-c5ccccc5)c34)c(F)c2)c(=O)c2cc(-c3cnn(C4CCNCC4)c3)ccc2n1C` [TL50180]: greater than 10000 nM; `Cc1c(C(=O)Nc2ccc(Oc3ncnc4[nH]cc(-c5ccccc5)c34)c(F)c2)c(=O)c2cc3ccccc3cc2n1C` [TL50198, N-(3-fluoro-4-((5-phenyl-7H-pyrrolo[2,3-d]pyrimidin-4-yl)oxy)phenyl)-1,2-dimethyl-4-oxo-1,4-dihydrobenzo[g]quinoline-3-carboxamide]: greater than 10000 nM.
Next, `COc1ccc2c(c1)c(=O)c(C(=O)Nc1ccc(Oc3ncnc4[nH]cc(-c5ccccc5)c34)c(F)c1)c(C)n2C` [TL4800005, N-(3-fluoro-4-((5-phenyl-7H-pyrrolo[2,3-d]pyrimidin-4-yl)oxy)phenyl)-6-methoxy-1,2-dimethyl-4-oxo-1,4-dihydroquinoline-3-carboxamide]: 99 nM; `Cc1ccc2[nH]c(C)c(C(=O)Nc3ccc(Oc4ncnc5[nH]cc(-c6ccccc6)c45)c(F)c3)c(=O)c2c1` [TL4800025, N-(3-fluoro-4-((5-phenyl-7H-pyrrolo[2,3-d]pyrimidin-4-yl)oxy)phenyl)-2,6-dimethyl-4-oxo-1,4-dihydroquinoline-3-carboxamide]: 557 nM; `CCn1c(C)c(C(=O)Nc2ccc(Oc3ncnc4[nH]cc(-c5ccccc5)c34)c(F)c2)c(=O)c2cc(C)ccc21` [TL4800067, 1-ethyl-N-(3-fluoro-4-(5-phenyl-7H-pyrrolo[2,3-d]pyrimidin-4-yloxy)phenyl)-2,6-dimethyl-4-oxo-1,4-dihydroquinoline-3-carboxamide]: 146 nM.
For the compound `CCCCn1c(C)c(C(=O)Nc2ccc(Oc3ncnc4[nH]cc(-c5ccccc5)c34)c(F)c2)c(=O)c2cc(C)ccc21` [TL4800080, 1-butyl-N-(3-fluoro-4-((5-phenyl-7H-pyrrolo[2,3-d]pyrimidin-4-yl)oxy)phenyl)-2,6-dimethyl-4-oxo-1,4-dihydroquinoline-3-carboxamide], half-maximal inhibition (IC50) was put at 476 nM.
As to `CC1COc2c(N3CCN(C)CC3)c(F)cc3c(=O)c(C(=O)Nc4ccc(Oc5ncnc6[nH]cc(-c7ccccc7)c56)c(F)c4)cn1c23` (centres unmarked) [TL4800088, 9-fluoro-N-(3-fluoro-4-((5-phenyl-7H-pyrrolo[2,3-d]pyrimidin-4-yl)oxy)phenyl)-3-methyl-10-(4-methylpiperazin-1-yl)-7-oxo-3,7-dihydro-2H-[1,4]oxazino[2,3,4-ij]quinoline-6-carboxamide], inhibition was half-maximal at 429 nM (IC50).
As to `O=C(Nc1ccc(Oc2ncnc3[nH]cc(-c4ccccc4)c23)c(F)c1)c1cn(C2CC2)c2cc(N3CCNCC3)c(F)cc2c1=O` [TL4800095, 1-cyclopropyl-6-fluoro-N-(3-fluoro-4-((5-phenyl-7H-pyrrolo[2,3-d]pyrimidin-4-yl)oxy)phenyl)-4-oxo-7-(piperazin-1-yl)-1,4-dihydroquinoline-3-carboxamide], the IC50 stood at 110 nM.
For `CCCn1c(C)c(C(=O)Nc2ccc(Oc3ncnc4[nH]cc(-c5ccccc5)c34)c(F)c2)c(=O)c2cc(C)ccc21` [TL4800104, N-(3-fluoro-4-(5-phenyl-7H-pyrrolo[2,3-d]pyrimidin-4-yloxy)phenyl)-2,6-dimethyl-4-oxo-1-propyl-1,4-dihydroquinoline-3-carboxamide], half-maximal inhibition (IC50) was put at 533 nM.
`CCCc1ccc2c(c1)c(=O)c(C(=O)Nc1ccc(Oc3ncnc4[nH]cc(-c5ccccc5)c34)c(F)c1)c(C)n2C` [TL4800116, N-(3-fluoro-4-((5-phenyl-7H-pyrrolo[2,3-d]pyrimidin-4-yl)oxy)phenyl)-1,2-dimethyl-4-oxo-6-propyl-1,4-dihydroquinoline-3-carboxamide] showed an IC50 of 61 nM.
For `CCc1c(C(=O)Nc2ccc(Oc3ncnc4[nH]cc(-c5ccccc5)c34)c(F)c2)c(=O)c2cc(C)ccc2n1C` [TL4800139, 2-ethyl-N-(3-fluoro-4-(5-phenyl-7H-pyrrolo[2,3-d]pyrimidin-4-yloxy)phenyl)-1,6-dimethyl-4-oxo-1,4-dihydroquinoline-3-carboxamide], the half-maximal inhibitory concentration (IC50) came out at 78 nM.
Regarding `Cc1ccc2c(c1)c(=O)c(C(=O)Nc1ccc(Oc3ncnc4[nH]cc(-c5ccccc5)c34)c(F)c1)c(-c1ccccc1)n2C` [TL4800144, N-(3-fluoro-4-(5-phenyl-7H-pyrrolo[2,3-d]pyrimidin-4-yloxy)phenyl)-1,6-dimethyl-4-oxo-2-phenyl-1,4-dihydroquinoline-3-carboxamide], the half-inhibitory concentration (IC50) was 78 nM.
In the case of `CCc1ccc2c(c1)c(=O)c(C(=O)Nc1ccc(Oc3ncnc4[nH]ccc34)c(F)c1)c(C)n2C` [TL4800147], inhibition was half-maximal at 157 nM (IC50).
Next, `Cc1cc2c3c(c1)c(=O)c(C(=O)Nc1ccc(Oc4ncnc5[nH]cc(-c6ccccc6)c45)c(F)c1)cn3CCC2` [TL4800160, N-(3-fluoro-4-((5-phenyl-7H-pyrrolo[2,3-d]pyrimidin-4-yl)oxy)phenyl)-9-methyl-1-oxo-1,5,6,7-tetrahydropyrido[3,2,1-ij]quinoline-2-carboxamide]: 129 nM; `Cc1ccc2c(c1)c(=O)c(C(=O)Nc1ccc(Oc3ncnc4[nH]cc(-c5ccccc5)c34)c(F)c1)cn2C` [TL4800167, N-(3-fluoro-4-(5-phenyl-7H-pyrrolo[2,3-d]pyrimidin-4-yloxy)phenyl)-1,6-dimethyl-4-oxo-1,4-dihydroquinoline-3-carboxamide]: 152 nM.
For `CCc1ccc2c(c1)c(=O)c(C(=O)Nc1ccc(Oc3ncnc4[nH]cc(-c5ccccc5)c34)c(F)c1)cn2C` [TL4800178, 6-ethyl-N-(3-fluoro-4-(5-phenyl-7H-pyrrolo[2,3-d]pyrimidin-4-yloxy)phenyl)-1-methyl-4-oxo-1,4-dihydroquinoline-3-carboxamide], it took 56 nM to reach half-maximal inhibition (IC50).
With `CCc1ccc2c(c1)c(=O)c(C(=O)Nc1ccc(Oc3ncnc4[nH]cc(-c5ccccc5)c34)cc1)c(C)n2C` [TL4830014, 6-ethyl-1,2-dimethyl-4-oxo-N-(4-((5-phenyl-7H-pyrrolo[2,3-d]pyrimidin-4-yl)oxy)phenyl)-1,4-dihydroquinoline-3-carboxamide], half-maximal inhibition (IC50) was put at 105 nM.
On to `COc1cc2ncnc(Oc3ccc(NC(=O)c4cn(CCF)c5c(F)c(N6CCN(C)CC6)c(F)cc5c4=O)cc3F)c2cc1OC` [TL4830040, N-(4-(6,7-dimethoxyquinazolin-4-yloxy)-3-fluorophenyl)-6,8-difluoro-1-(2-fluoroethyl)-7-(4-methylpiperazin-1-yl)-4-oxo-1,4-dihydroquinoline-3-carboxamide], for which half-maximal inhibition (IC50) was put at 224 nM.
